Tests used:
[1] = biological target: T1, human CSNK1D (Homo sapiens, UniProt P48730); experiment: Whole Cell nBRET CSNK1D Binding Assay; conditions: living CHO cells stably expressing human CSNK1D tagged with nanoluciferase; NanoBret tracer 130 nM; 2 hours at 37 C
T1 construct: expressed in transfected cells

[2] = biological target: T2, human recombinant GST cleaved CSNK1D (Homo sapiens, UniProt P48730); experiment: Purified Enzyme Assay (ADP-Glo CSNK1D Kinase Assay); assay type: biochemical; conditions: 2 nM CSNK1D; peptide substrate 150 μM; ATP 20 μM; 45 minutes at room temperature
T2 construct: GST (cleaved yes); purchased University of Dundee clone DU 19064
Outline: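 GST-cleaved human recombinant CSNK1D phosphorylates peptide PLSRTL-pS-VASLPGL with ATP; compounds added in dose-response, 45 min at room temperature. ADP formed measured by ADP-Glo luminescence and converted to percent activity.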

T1 sequence (P48730 whole entry): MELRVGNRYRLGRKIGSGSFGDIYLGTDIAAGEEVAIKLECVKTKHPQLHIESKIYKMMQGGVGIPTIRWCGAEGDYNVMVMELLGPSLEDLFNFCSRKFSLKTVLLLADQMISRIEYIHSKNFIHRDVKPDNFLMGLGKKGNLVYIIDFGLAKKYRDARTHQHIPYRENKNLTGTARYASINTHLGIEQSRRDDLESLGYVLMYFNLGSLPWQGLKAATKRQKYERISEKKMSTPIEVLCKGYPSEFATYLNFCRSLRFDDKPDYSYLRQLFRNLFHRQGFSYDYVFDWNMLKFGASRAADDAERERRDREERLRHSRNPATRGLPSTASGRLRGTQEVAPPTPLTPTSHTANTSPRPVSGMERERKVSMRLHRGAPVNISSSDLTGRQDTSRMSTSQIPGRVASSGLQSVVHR
T2 sequence (P48730 whole entry): as above

Compound | IC50 [1] [nM] | IC50 [2] [nM]
Fc1ccc(-c2nn3c(c2-c2ccnc4[nH]ncc24)CC(F)(F)C3)cc1 [Example 230, 4-[5,5-Difluoro-2-(4-fluorophenyl)-4,6-dihydropyrrolo[1,2-b]pyrazol-3-yl]-1H-pyrazolo[3,4-b]pyridine] | 74 | 5
Fc1ccc(-c2nn3c(c2-c2c(F)cnc4[nH]ncc24)CC(F)(F)CC3)cc1 [Example 278, 4-[5,5-Difluoro-2-(4-fluorophenyl)-6,7-dihydro-4H-pyrazolo[1,5-a]pyridin-3-yl]-5-fluoro-1H-pyrazolo[3,4-b]pyridine] | 64 | 7
[2H]C([2H])([2H])C1(C([2H])([2H])[2H])Cn2nc(-c3ccc(F)cn3)c(-c3ccnc(NC(=O)CC)c3)c2CO1 [Example 395, N-(4-(2-(5-Fluoropyridin-2-yl)-6,6-bis(methyl-d3)-6,7-dihydro-4H-pyrazolo[5,1-c][1,4]oxazin-3-yl)pyridin-2-yl)propionamide] | 21 | 2
Cc1nc2[nH]ncc2c(-c2c(-c3ccc(F)cn3)nn3c2COC(C)(C)C3)c1F [Example 157, 3-(5-Fluoro-6-methyl-1H-pyrazolo[3,4-b]pyridin-4-yl)-2-(5-fluoro-2-pyridyl)-6,6-dimethyl-4,7-dihydropyrazolo[5,1-c][1,4]oxazine] | 72 | 8
Cc1cc(-c2c(-c3ccc(F)cn3)nn3c2CNCC3)c2cn[nH]c2n1 [Example 2, 4-[2-(5-Fluoro-2-pyridyl)-4,5,6,7-tetrahydropyrazolo[1,5-a]pyrazin-3-yl]-6-methyl-1H-pyrazolo[3,4-b]pyridine] | 528 | 19
Cc1n[nH]c2nccc(-c3c(-c4ccc(F)cn4)nn4c3COC(C)(C)C4)c12 [Example 160, 2-(5-Fluoropyridin-2-yl)-6,6-dimethyl-3-(3-methyl-1H-pyrazolo[3,4-b]pyridin-4-yl)-6,7-dihydro-4H-pyrazolo[5,1-c][1,4]oxazine] | 143 | 9
CC1(C)Cc2c(-c3c(F)cnc4[nH]ncc34)c(-c3ccc(F)cn3)nn2C1 [Example 236, 5-Fluoro-4-[2-(5-fluoro-2-pyridyl)-5,5-dimethyl-4,6-dihydropyrrolo[1,2-b]pyrazol-3-yl]-1H-pyrazolo[3,4-b]pyridine] | 21 | 3
Cc1nc2[nH]nc(Cl)c2c(-c2c(-c3ccc(F)cn3)nn3c2CCC3)c1F [Example 224, 3-Chloro-5-fluoro-4-(2-(5-fluoropyridin-2-yl)-5,6-dihydro-4H-pyrrolo[1,2-b]pyrazol-3-yl)-6-methyl-1H-pyrazolo[3,4-b]pyridine] | 5 | 4
C[C@]1(CF)CCc2c(-c3ccnc4[nH]ncc34)c(-c3ccc(F)cn3)nn2C1 (single isomer, unassigned) [Example 51, (*)-4-[6-(Fluoromethyl)-2-(5-fluoro-2-pyridyl)-6-methyl-5,7-dihydro-4H-pyrazolo[1,5-a]pyridin-3-yl]-1H-pyrazolo[3,4-b]pyridine] | 11 | 1
Cc1nc(-c2c(-c3ccc(F)cc3)nn3c2COC(C(F)(F)F)C3)c2cn[nH]c2n1 (single isomer, unassigned) [Example 377, (*S)-2-(4-Fluorophenyl)-3-(6-methyl-1H-pyrazolo[3,4-d]pyrimidin-4-yl)-6-(trifluoromethyl)-6,7-dihydro-4H-pyrazolo[5,1-c][1,4]oxazine] | 2480 | 46
Cc1nc2[nH]ncc2c(-c2c(-c3ccc(F)cn3)nn3c2CO[C@@](C)(C(F)(F)F)C3)c1F (single isomer, unassigned) [Example 420, (*R)-3-(5-Fluoro-6-methyl-1H-pyrazolo[3,4-b]pyridin-4-yl)-2-(5-fluoropyridin-2-yl)-6-methyl-6-(trifluoromethyl)-6,7-dihydro-4H-pyrazolo[5,1-c][1,4]oxazine] | 24 | 3
Cc1cc(-c2c(-c3ccc(F)cn3)nn3c2CO[C@](C)(C(F)(F)F)C3)c2cn[nH]c2n1 (single isomer, unassigned) [Example 179, (*S)-2-(5-Fluoropyridin-2-yl)-6-methyl-3-(6-methyl-1H-pyrazolo[3,4-b]pyridin-4-yl)-6-(trifluoromethyl)-6,7-dihydro-4H-pyrazolo[5,1-c][1,4]oxazine] | 15 | 3
[2H]C([2H])([2H])[C@@]1(C(F)(F)F)Cn2nc(-c3ccc(F)cn3)c(-c3ccnc4[nH]ncc34)c2CO1 (single isomer, unassigned) [Example 424, (*S)-2-(5-Fluoropyridin-2-yl)-6-(methyl-d3)-3-(1H-pyrazolo[3,4-b]pyridin-4-yl)-6-(trifluoromethyl)-6,7-dihydro-4H-pyrazolo[5,1-c][1,4]oxazine] | 40 | 4
CC1(C)COc2c(-c3ccnc4[nH]ncc34)c(-c3ccc(F)cc3)nn2C1 [Example 212, 2-(4-Fluorophenyl)-6,6-dimethyl-3-(1H-pyrazolo[3,4-b]pyridin-4-yl)-6,7-dihydro-5H-pyrazolo[5,1-b][1,3]oxazine] | 1 | < 0.5
C[C@@H]1n2nc(-c3ccc(F)cc3)c(-c3ccnc4[nH]ncc34)c2COC1(C)C (single isomer, unassigned) [Example 171] | 6 | 1
Cn1cc2nccc(-c3c(-c4ccc(F)cn4)nn4c3COC(C)(C)C4)c2n1 [Example 138, 2-(5-Fluoropyridin-2-yl)-6,6-dimethyl-3-(2-methyl-2H-pyrazolo[4,3-b]pyridin-7-yl)-6,7-dihydro-4H-pyrazolo[5,1-c][1,4]oxazine] | 999 | 106
Cc1nc2[nH]nc(C)c2c(-c2c(-c3ccc(F)cn3)nn3c2CC[C@@H]2C[C@@H]23)c1F (single isomer, unassigned) [Example 346, (5a*R,6a*S)-3-(5-Fluoro-3,6-dimethyl-1H-pyrazolo[3,4-b]pyridin-4-yl)-2-(5-fluoropyridin-2-yl)-5,5a,6,6a-tetrahydro-4H-cyclopropa[e]pyrazolo[1,5-a]pyridine] | 173 | 25
CC1(C)Cn2nc(-c3cnco3)c(-c3ccnc4[nH]ncc34)c2CO1 [Example 126, 6,6-Dimethyl-2-(oxazol-5-yl)-3-(1H-pyrazolo[3,4-b]pyridin-4-yl)-6,7-dihydro-4H-pyrazolo[5,1-c][1,4]oxazine] | 827 | 21
CC1(C)CCc2c(-c3c(F)cnc4[nH]ncc34)c(-c3ccc(F)cn3)nn2C1 [Example 282, 5-Fluoro-4-[2-(5-fluoro-2-pyridyl)-6,6-dimethyl-5,7-dihydro-4H-pyrazolo[1,5-a]pyridin-3-yl]-1H-pyrazolo[3,4-b]pyridine] | 48 | 9
Fc1ccc(-c2nn3c(c2-c2ccnc4[nH]ncc24)CC2(C3)CC2(F)F)nc1 (single isomer, unassigned) [Example 255, (*R)-1′.1′-Difluoro-2-(5-fluoro-2-pyridyl)-3-(1H-pyrazolo[3,4-b]pyridin-4-yl)spiro[4,6-dihydropyrrolo[1,2-b]pyrazole-5,2′-cyclopropane]] | 1950 | 66
Cc1cc(-c2c(-c3ccc(F)cn3)nn3c2C2CC2C3)c2cn[nH]c2n1 (racemic) [Example 24, 2-(5-Fluoropyridin-2-yl)-3-(6-methyl-1H-pyrazolo[3,4-b]pyridin-4-yl)-3b,4,4a,5-tetrahydrocyclopropa[3,4]pyrrolo[1,2-b]pyrazole] | 55 | 4
Cc1cc(-c2c(-c3ccc(F)cc3)nn3c2OCC2(C3)CC2(F)F)c2cn[nH]c2n1 (single isomer, unassigned) [Example 474, *S-2,2-Difluoro-2′-(4-fluorophenyl)-3′-6-methyl-1H-pyrazolo[3,4-b]pyridin-4-yl)-5′H,7′H-spiro[cyclopropane-1,6′-pyrazolo[5,1-b][1,3]oxazine]] | 2 | 1
Fc1ccc(-c2nn3c(c2-c2ccnc4cn[nH]c24)CCC3)nc1 [Example 220, 7-[2-(5-Fluoro-2-pyridyl)-5,6-dihydro-4H-pyrrolo[1,2-b]pyrazol-3-yl]-1H-pyrazolo[4,3-b]pyridine] | 1490 | 99
CC1(C(F)(F)F)Cn2nc(-c3ccc(F)cc3)c(-c3ccn4nccc4c3)c2CO1 (single isomer, unassigned) [Example 413, (*S)-2-(4-Fluorophenyl)-6-methyl-3-(pyrazolo[1,5-a]pyridin-5-yl)-6-(trifluoromethyl)-6,7-dihydro-4H-pyrazolo[5,1-c][1,4]oxazine] | 75 | 27
CC1(C)Cn2nc(-c3ccc(F)cn3)c(-c3cc(C4CC4)nc4[nH]ncc34)c2CO1 [Example 155, 3-(6-Cyclopropyl-1H-pyrazolo[3,4-b]pyridin-4-yl)-2-(5-fluoropyridin-2-yl)-6,6-dimethyl-6,7-dihydro-4H-pyrazolo[5,1-c][1,4]oxazine] | 172 | 8
CC1(CF)CCc2c(-c3ccnc(N)c3)c(-c3ccc(F)cn3)nn2C1 (single isomer, unassigned) [Example 287, (*R)-4-[6-(Fluoromethyl)-2-(5-fluoro-2-pyridyl)-6-methyl-5,7-dihydro-4H-pyrazolo[1,5-a]pyridin-3-yl]pyridin-2-amine] | 68 | 5
CC1(C)Cc2c(-c3ccnc4[nH]ccc34)c(-c3ccc(F)cn3)nn2C1 [Example 233, 4-[2-(5-Fluoro-2-pyridyl)-5,5-dimethyl-4,6-dihydropyrrolo[1,2-b]pyrazol-3-yl]-1H-pyrrolo[2,3-b]pyridine] | 7 | 2

Reference: patent US20230339970A1, “CASEIN KINASE 1 DELTA MODULATORS” (priority 2020, published 2023)
